Assay results taken from patent publication US20100120690A1, “Polypeptides Having Antimicrobial Activity and Polynucleotides Encoding Same” (Novozymes Adenium Biotech A/S, priority 2005, published 2010).

Tests used:
Assay type in all cases: cell-based
Staphylococcus carnosus = assay: TAPS (Trans Acting Peptide System) assay, radial diffusion read-out; set-up: key: classified as 4>3>2>1; whereas 4 is better than 1; classified as 4>3>2>1; classified as 4>3>2>1; wildtype activity corresponds to 1; settings: peptide expressed in E. coli
Protocol: A range of antimicrobial polypeptides, which are variants of SEQ ID NO: 1, were tested in the TAPS assay. TAPS may be used to identify new or improved genes encoding peptides that can kill or inhibit the growth of target cells (see PCT application WO 2004/033715). The TAPS assay, an acronym for Trans Acting Peptide System, is based on having a sensitive host producing a peptide followed by screening for its activity in trans against an indicator strain. The advantage of this system is based on that the antimicrobial peptide is expressed in the Gram-negative bacterium E. coli and its antimicrobial activity can be monitored on different microbes including Gram-negatives, positives or fungi. Additionally, TAPS offers the possibility to produce correctly folded AMPs containing disulfide bonds in the host cells, thereby retaining their antimicrobial activities.
The TAPS approach requires first, that expression of the peptide is under control of an inducible promoter with tight regulation, because the host cells are sensitive to the peptide when producing it. Secondly, the produced peptide has to be released to the media so that it can interact with the target organism.
The TAPS screening can be carried out either in solid or liquid media. On solid media, a plasmid library is initially introduced into E. coli host cells. […] In the next step, the filter containing the colonies is transferred to LB growth medium containing inducer (0.1% arabinose) to permit peptide synthesis. Subsequently, the target strain, for example S. carnosus, is overlaid onto the plate and allowed to grow for 12-16 hours at 37° C. Finally, visual inspection of the host cells capable of reducing the proliferation of the target cells is performed and the nucleotide sequence encoding for the antimicrobial peptide is recovered from the host cells. DNA sequence analysis of the variants is obtained to elucidate the nature of the peptide.
As mentioned above, the TAPS screening can also be performed using liquid medium. This procedure requires the use of robotics to analyze large number of clones. In this system, the host E. coli origami cells are transformed with the plasmid library and plated out on LB medium+0.2% glucose+ampicillin (200 mg/L). Independent colonies are then inoculated into 96 or 384-well plates containing 200 micro-L of TB medium+ampicillin (200 mg/L) and cultured overnight at 37° C. These cultures are then replicated robotically and grown to exponential phase until inducer (0.1% arabinose) is added to trigger peptide synthesis. The next step consists in hydrolyzing the cells such that the peptide is released to the media by hot acid hydrolysis. This treatment consists on adding 1 M sodium Phosphate buffer pH 2.3 to obtain a final pH approximately of 2.3 and incubating the cultures overnight at 80° C. Next day, a 25 micro-L aliquot of the hydrolyzed cultures is used to perform an activity test against the desired target organisms. The activity test performed was a Radial Diffusion Assay (RDA) where an aliquot of the hydrolyzed cultures was added to the agarose media inoculated with the target strain, S. carnosus. […] Measurements of the diameter of the clearing zones were performed to quantify the potency of the antimicrobial activity of the peptides.
The antimicrobial activity (against Staphylococcus carnosus) of the tested plectasin variants, which was measured using the TAPS assay, is shown in table 3. The antimicrobial activity corresponds to the clearing zone size and has been classified as 4>3>2>1; whereas 4 is better than 1, and wildtype activity corresponds to 1.

[1] = tested on: panel of 6 different strains of Staphylococcus aureus; assay: Average MIC, NCCLS/CLSI guidelines using caMHB (Example 6); settings: average over 6 S. aureus strains, duplicate; MIC above 32 counted as 64; read after 18-24 hours at 37° C.
In short: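 MICs were determined by broth dilution per NCCLS/CLSI in caMHB against six S. aureus strains (four MSSA, two MRSA), with peptides at 0.03–32 microgram/mL, read after 18-24 h at 37° C. Each was tested in duplicate and the two results averaged; MICs above 32 micrograms/mL were counted as 64.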

[2] = tested on: Staphylococcus aureus, MRSA ST5 (2001); assay: MIC, NCCLS/CLSI guidelines (Example 5), strain D; settings: relative to wildtype Plectasin; average of two independent experiments
In short: (§1)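 Scores express each variant's MIC as a fraction of wild-type plectasin MIC (0: >100%; 1: 80-100%; 2: 50-80%; 3: <50%), averaged over two independent runs. Purified recombinant peptides; MIC by the CLSI (formerly NCCLS) method.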

[3] = tested on: Staphylococcus aureus, MRSA ST80 (2003); assay: MIC, NCCLS/CLSI guidelines (Example 5), strain E; settings: relative to wildtype Plectasin; average of two independent experiments
In short: as §1

[4] = tested on: Staphylococcus aureus, ATCC 29737; assay: MIC, NCCLS/CLSI guidelines (Example 5), strain C; settings: relative to wildtype Plectasin; average of two independent experiments
In short: (§2)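 MICs of purified plectasin peptides are measured according to NCCLS/CLSI guidance. Each value averages duplicate independent experiments and is given as a category relative to wild-type: 0 above 100%, 1 80-100%, 2 50-80%, 3 below 50%.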

[5] = tested on: Staphylococcus aureus, ATCC 29213; assay: MIC, NCCLS/CLSI guidelines (Example 5), strain A; settings: relative to wildtype Plectasin; average of two independent experiments
In short: as §2

[6] = tested on: Staphylococcus aureus, ATCC 25923; assay: MIC, NCCLS/CLSI guidelines (Example 5), strain B; settings: relative to wildtype Plectasin; average of two independent experiments
In short: as §2

[7] = tested on: Staphylococcus carnosus ATCC51365; assay: Yeast screening assay: radial diffusion assay of yeast supernatants; set-up: key: An activity of 3 is better than Plectasin; An activity of 2 corresponds to the activity of Plectasin; 1 is worse than Plectasin; settings: yeast supernatant, clearing zone in radial diffusion assay
In short: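 Supernatants from S. cerevisiae expressing plectasin variants, grown 3 days at 30 °C in galactose medium, were applied to agarose containing 5×10^5 cfu/mL S. carnosus. Plates were incubated 3 h at 37 °C, overlaid, left overnight and MTT-stained. Clearing zones were scored as 2 = plectasin-like, 3 = better, 1 = worse.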

GFGCNGPWDEDDKQCHNHCKSIKGYRGGYCAKGGFVCKCY [M13K + K26R]
Activity (antimicrobial activity, clearing zone size) (Staphylococcus carnosus): 4
Average MIC [1]: 10 micrograms/mL

GFGCNGPWDEDDMLCHNHCKSIKGYKGGYCAKGGFVCKCY [Mutation Q14L]
Activity (antimicrobial activity, clearing zone size) (Staphylococcus carnosus): 4
Average MIC [1]: 13 micrograms/mL

GFGCNGPWDEDDKQCHRHCKSIKGYKGGYCAKGGFVCKCYR [M13K + N17R + Y40YR]
Activity (antimicrobial activity, clearing zone size) (Staphylococcus carnosus): 3
Average MIC [1]: 8 micrograms/mL

GFGCKGPWDEDDMQCHNHCKSIKGYKGGYCAKGGFVCKCY [Mutation N5K]
Activity (antimicrobial activity, clearing zone size) (Staphylococcus carnosus): 2
Average MIC [1]: 12 micrograms/mL

GFGCNGPWDEDDMQCHYHCKSIKGYKGGYCAKGGFVCKCY [Mutation N17Y]
Relative MIC, strain D [2]: 2 (50-80% of Plectasin wildtype MIC)
Activity (antimicrobial activity, clearing zone size) (Staphylococcus carnosus): 3
Relative MIC, strain E [3]: 2 (50-80% of Plectasin wildtype MIC)
Average MIC [1]: 6 micrograms/mL
Relative MIC, strain C [4]: 3 (<50% of Plectasin wildtype MIC)
Relative MIC, strain A [5]: 1 (80-100% of Plectasin wildtype MIC)
Relative MIC, strain B [6]: 3 (<50% of Plectasin wildtype MIC)

GFGCNGPWDEDDMQCHIHCKSIKGYKGGYCAKGGFVCKCY [Mutation N17I]
Activity (antimicrobial activity, clearing zone size) (Staphylococcus carnosus): 2
Average MIC [1]: 14 micrograms/mL

GFGCNGPWDENDMQCHNHCKFIKGYKGGYCAKGGFVCKCY [D11N + S21F]
Activity (antimicrobial activity, clearing zone size) (Staphylococcus carnosus): 4

GFGCNGPWDEDDMQCHNHCRSIKGYKGGYCAKGGFVCKCY [Mutation K20R]
Activity (antimicrobial activity, clearing zone size) (Staphylococcus carnosus): 2

GFGCNGPWDEDDMRCHNHCKSIKGYKGGYCAKGGFICKCY [Q14R + V36I]
Activity (antimicrobial activity, clearing zone size) (Staphylococcus carnosus): 4

GFGCNGPWDEDDKQCHRHCKSIKGYKGGYCAKGGFVCKCY [M13K + N17R]
Activity (antimicrobial activity, clearing zone size) (Staphylococcus carnosus): 3

GFGCNGPWDEGDKQCHNHCKSIKGYRGGYCAKGGFVCKCY [D11G + M13K + K26R]
Activity (antimicrobial activity, clearing zone size) (Staphylococcus carnosus): 3

GFGCNGPWDEDDMQCHRHCKSIKGYKGGYCAKGGFVCKCYR [N17R + Y40YR]
Activity (antimicrobial activity, clearing zone size) (Staphylococcus carnosus): 3

GFGCKGPWDEDDMQCHNHCKSIKGYRGGYCAKGGFVCKCY [N5K + K26R]
Activity (antimicrobial activity relative to the activity of plectasin) [7]: 3
Relative MIC, strain D [2]: 2 (50-80% of Plectasin wildtype MIC)
Relative MIC, strain E [3]: 2 (50-80% of Plectasin wildtype MIC)
Average MIC [1]: 9 micrograms/mL
Relative MIC, strain C [4]: 3 (<50% of Plectasin wildtype MIC)
Relative MIC, strain A [5]: 1 (80-100% of Plectasin wildtype MIC)
Relative MIC, strain B [6]: 2 (50-80% of Plectasin wildtype MIC)

GFGCNGPWDEDDMRCHNHCKSIKGYRGGYCAKGGFVCKCY [Q14R + K26R]
Activity (antimicrobial activity, clearing zone size) (Staphylococcus carnosus): 4
Average MIC [1]: 5 micrograms/mL

GFGCNGPWDEDDMRCHNHCKSIKGYKGGYCAKGGFVCKCYR [Q14R + Y40YR]
Activity (antimicrobial activity, clearing zone size) (Staphylococcus carnosus): 3

GFGCYGPWDEDDMQCHNHCKSIKGYKGGYCAKGGFVCKCY [Mutation N5Y]
Activity (antimicrobial activity, clearing zone size) (Staphylococcus carnosus): 2

GFGCNGPWDEGDMQCHNHCKSIKGYKGGYCARGGFVCKCY [D11G + K32R]
Activity (antimicrobial activity relative to the activity of plectasin) [7]: 3
Relative MIC, strain D [2]: 2 (50-80% of Plectasin wildtype MIC)
Relative MIC, strain E [3]: 3 (<50% of Plectasin wildtype MIC)
Average MIC [1]: 5 micrograms/mL
Relative MIC, strain C [4]: 3 (<50% of Plectasin wildtype MIC)
Relative MIC, strain A [5]: 1 (80-100% of Plectasin wildtype MIC)
Relative MIC, strain B [6]: 3 (<50% of Plectasin wildtype MIC)

GFGCNGPWDEDDKQCHNHCKSIKGYKGGYCAKGGFVCKCY [Mutation M13K]
Activity (antimicrobial activity, clearing zone size) (Staphylococcus carnosus): 3
Average MIC [1]: 12 micrograms/mL

GFGCYGPWDEDDMLCHNHCKSIKGYKGGYCAKGGFVCKCY [N5Y + Q14L]
Activity (antimicrobial activity, clearing zone size) (Staphylococcus carnosus): 2

GFGCSGPWDEDDMRCHNHCKAIRGYKGGYCAKGGFVCKCY [N5S + Q14R + S21A + K23R]
Activity (antimicrobial activity relative to the activity of plectasin) [7]: 3
Relative MIC, strain D [2]: 2 (50-80% of Plectasin wildtype MIC)
Relative MIC, strain E [3]: 0 (>100% of Plectasin wildtype MIC)
Average MIC [1]: 9 micrograms/mL
Relative MIC, strain C [4]: 2 (50-80% of Plectasin wildtype MIC)
Relative MIC, strain A [5]: 1 (80-100% of Plectasin wildtype MIC)
Relative MIC, strain B [6]: 3 (<50% of Plectasin wildtype MIC)

GFGCNGPWDEDDMRCHNHCRSIKGYKGGYCAKGGFVCKCY [Q14R + K20R]
Activity (antimicrobial activity relative to the activity of plectasin) [7]: 2
Relative MIC, strain D [2]: 3 (<50% of Plectasin wildtype MIC)
Relative MIC, strain E [3]: 3 (<50% of Plectasin wildtype MIC)
Average MIC [1]: 3 micrograms/mL
Relative MIC, strain C [4]: 3 (<50% of Plectasin wildtype MIC)
Relative MIC, strain A [5]: 3 (<50% of Plectasin wildtype MIC)
Relative MIC, strain B [6]: 3 (<50% of Plectasin wildtype MIC)

GFGCNGPWDEDDMQCHHHCKSIKGYKGGYCAKGGFVCKCY [Mutation N17H]
Activity (antimicrobial activity, clearing zone size) (Staphylococcus carnosus): 4

GFGCNGPWDEDDMQCHNHCKSIKGYRGGYCAKGGFVCKCY [Mutation K26R]
Activity (antimicrobial activity, clearing zone size) (Staphylococcus carnosus): 3
Average MIC [1]: 15 micrograms/mL

GFGCNGPWDEDDMQCHNHCKFIKGYKGGYCTKGGFVCKCY [S21F + A31T]
Activity (antimicrobial activity, clearing zone size) (Staphylococcus carnosus): 2
